Data on 1 compound can be found in US8658826B2, “Amino acid derivatives used as pharmaceutical substances” (Dritte Patentportfolio Beteiligungsgesellschaft mgH & Co. KG, priority 2008, dated 2014).

The data set is described as follows: oral bioavailability study with rats: benzamidine plasma levels after oral valbenzamidoxime. Conditions: oral 50 mg/kg. The class given is in vivo, rat. The protocol:
For proving the resorption from the gastrointestinal tract and the subsequent reduction to benzamidine, the valbenamidoxime is orally administered to three rats. The metabolization of the ester into benzamidine in this case takes place in vivo as follows:
The anaesthesia was carried out using xylazine and ketamine. Both were administered by intramuscular injection. The silicone catheters were implanted in the vena jugularis and the arteria carotis. They have locally antithrombotic and anti-inflammatory properties, but are not systemically active. During the surgery, the eyes were protected with a cornea-protective ointment (Oculotect®), and 3-4 ml of Ringer lactate solution was applied subcutaneously for improving the postoperative energy supply. The animals were treated antiphlogistically (Finadyne®, 1 mg/kg of body weight) and antibiotically (Amoxicillin® 15%, 10 mg/kg of body weight) and postoperatively attended and kept warm until they woke up. The day after the surgery, the animals got Nutri Plus®, an energy paste (soy bean oil, molasses, cod-liver oil, meat extract, mineral premixture, vitamin premixture).
Male Wistar rats having an average weight of 200 g served as the test animals. The animals were kept individually in cages. Every second day they got concentrated food. […]
For separating the substances to be analyzed, the following HPLC method was used: […]

Take `CC(C)C(N)C(=O)O/N=C(\N)c1ccccc1` (stereo not shown) [valbenzamidoxime]: the “resorption of the prodrug after oral administration and metabolization into benzamidine” value was “completely resorbed after oral administration and metabolized into the active form benzamidine”.
